From PubChem BioAssay (NCI)
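Grown in 96-well plates, cells were treated for 48 hours with each compound at five concentrations. Insufficient inhibition: endpoint recorded as highest concentration tested. TGI is the concentration that stops growth completely.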

Columns and labels:
Assay in all cases: DTP human tumour cell line panel, 48 h
[1] = system: OVCAR-3 ovarian
[2] = system: ACHN renal
[3] = system: TK-10 renal
[4] = system: HS 578T breast
[5] = system: NCI-H460 lung
[6] = system: T-47D breast
[7] = system: SNB-75 CNS
[8] = system: UO-31 renal
[9] = system: K-562 leukemia
[10] = system: HT29 colon
[11] = system: OVCAR-5 ovarian
[12] = system: SW-620 colon
[13] = system: PC-3 prostate
[14] = system: SK-MEL-28 melanoma
[15] = system: HOP-62 NSCLC
[16] = system: SR leukemia
[17] = system: SNB-19 CNS
[18] = system: SF-295 CNS
[19] = system: DU-145 prostate
[20] = system: KM12 colon
[21] = system: SN12C renal
[22] = system: NCI-H226 lung
[23] = system: MDA-MB-231 breast
[24] = system: NCI-H522 lung
[25] = system: IGROV1 ovarian
[26] = system: MCF7 breast
[27] = system: SF-268 CNS
[28] = system: SK-MEL-2 melanoma
[29] = system: OVCAR-8 ovarian
[30] = system: MDA-N
[31] = system: SK-OV-3 ovarian
[32] = system: SF-539 CNS
[33] = system: MDA-MB-435
[34] = system: UACC-257 melanoma
[35] = system: NCI/ADR-RES ovarian
[36] = system: A498 renal
[37] = system: LOX IMVI melanoma
[38] = system: RPMI-8226 leukemia
[39] = system: 786-0 renal
[40] = system: HOP-92 NSCLC
[41] = system: UACC-62 melanoma
[42] = system: HCT-116 colon
[43] = system: EKVX NSCLC
[44] = system: U251 CNS
[45] = system: A549 NSCLC
[46] = system: M14 melanoma
[47] = system: HCT-15 colon
[48] = system: MOLT-4 leukemia
[49] = system: RXF 393 renal
[50] = system: CCRF-CEM leukemia
[51] = system: NCI-H23 lung
[52] = system: CAKI-1 renal
[53] = system: OVCAR-4 ovarian
[54] = system: MALME-3M melanoma
[55] = system: HCC-2998 colon
[56] = system: COLO 205 colon
[57] = system: HL-60(TB) leukemia
[58] = system: SK-MEL-5 melanoma

SMILES: CNc1cc(N)ccc1C(=O)N1CCC[C@H]1CO
- TGI [1]: > 100 µM
- TGI [2]: > 100 µM
- TGI [3]: > 100 µM
- TGI [4]: > 100 µM
- TGI [5]: > 100 µM
- TGI [6]: > 100 µM
- TGI [7]: > 100 µM
- TGI [8]: > 100 µM
- TGI [9]: > 100 µM
- TGI [10]: > 100 µM
- TGI [11]: > 100 µM
- TGI [12]: > 100 µM
- TGI [13]: > 100 µM
- TGI [14]: > 100 µM
- TGI [15]: > 100 µM
- TGI [16]: > 100 µM
- TGI [17]: > 100 µM
- TGI [18]: > 100 µM
- TGI [19]: > 100 µM
- TGI [20]: > 100 µM
- TGI [21]: > 100 µM
- TGI [22]: > 100 µM
- TGI [23]: > 100 µM
- TGI [24]: > 100 µM
- TGI [25]: > 100 µM
- TGI [26]: > 100 µM
- TGI [27]: > 100 µM
- TGI [28]: > 100 µM
- TGI [29]: > 100 µM
- TGI [30]: > 100 µM
- TGI [31]: > 100 µM
- TGI [32]: > 100 µM
- TGI [33]: > 100 µM
- TGI [34]: > 100 µM
- TGI [35]: > 100 µM
- TGI [36]: > 100 µM
- TGI [37]: > 100 µM
- TGI [38]: > 100 µM
- TGI [39]: > 100 µM
- TGI [40]: > 100 µM
- TGI [41]: > 100 µM
- TGI [42]: > 100 µM
- TGI [43]: > 100 µM
- TGI [44]: > 100 µM
- TGI [45]: > 100 µM
- TGI [46]: > 100 µM
- TGI [47]: > 100 µM
- TGI [48]: > 100 µM

SMILES: CC1=C(C#N)C2C(=C(C)N1)C(N)=Nc1ccccc12 (configuration not stated)
- TGI [1]: > 100 µM
- TGI [2]: > 100 µM
- TGI [3]: > 100 µM
- TGI [4]: 74.7 µM
- TGI [5]: > 100 µM
- TGI [6]: > 100 µM
- TGI [7]: 44.1 µM
- TGI [49]: > 100 µM
- TGI [50]: > 100 µM
- TGI [51]: > 100 µM
- TGI [10]: > 100 µM
- TGI [52]: > 100 µM
- TGI [11]: > 100 µM
- TGI [53]: > 100 µM
- TGI [12]: > 100 µM
- TGI [13]: 70.8 µM
- TGI [14]: > 100 µM
- TGI [15]: > 100 µM
- TGI [16]: > 100 µM
- TGI [17]: > 100 µM
- TGI [18]: > 100 µM
- TGI [19]: > 100 µM
- TGI [54]: > 100 µM
- TGI [20]: > 100 µM
- TGI [21]: > 100 µM
- TGI [22]: 93.8 µM
- TGI [23]: > 100 µM
- TGI [24]: > 100 µM
- TGI [25]: 95.6 µM
- TGI [26]: > 100 µM
- TGI [27]: > 100 µM
- TGI [28]: > 100 µM
- TGI [29]: > 100 µM
- TGI [55]: > 100 µM
- TGI [30]: > 100 µM
- TGI [31]: > 100 µM
- TGI [56]: > 100 µM
- TGI [32]: > 100 µM
- TGI [57]: 81.6 µM
- TGI [34]: > 100 µM
- TGI [58]: > 100 µM
- TGI [35]: > 100 µM
- TGI [36]: 97.8 µM
- TGI [37]: > 100 µM
- TGI [39]: > 100 µM
- TGI [40]: 62.2 µM
- TGI [41]: > 100 µM
- TGI [42]: > 100 µM
- TGI [43]: 89.4 µM
- TGI [45]: > 100 µM
- TGI [46]: > 100 µM
- TGI [47]: > 100 µM
- TGI [48]: > 100 µM

SMILES: Cc1c(C(=O)C(=O)c2ccccc2)c(C)c(C(=O)C(=O)c2ccccc2)c(C)c1C(=O)C(=O)c1ccccc1
- TGI [2]: > 100 µM
- TGI [3]: > 100 µM
- TGI [4]: > 100 µM
- TGI [5]: > 100 µM
- TGI [6]: > 100 µM
- TGI [7]: > 100 µM
- TGI [8]: > 100 µM
- TGI [50]: > 100 µM
- TGI [9]: > 100 µM
- TGI [10]: > 100 µM
- TGI [11]: > 100 µM
- TGI [53]: > 100 µM
- TGI [12]: > 100 µM
- TGI [13]: > 100 µM
- TGI [14]: > 100 µM
- TGI [15]: > 100 µM
- TGI [16]: > 100 µM
- TGI [17]: > 100 µM
- TGI [18]: > 100 µM
- TGI [20]: > 100 µM
- TGI [21]: > 100 µM
- TGI [23]: > 100 µM
- TGI [24]: > 100 µM
- TGI [25]: > 100 µM
- TGI [26]: > 100 µM
- TGI [27]: > 100 µM
- TGI [29]: > 100 µM
- TGI [55]: > 100 µM
- TGI [30]: > 100 µM
- TGI [31]: > 100 µM
- TGI [56]: > 100 µM
- TGI [32]: > 100 µM
- TGI [57]: > 100 µM
- TGI [33]: > 100 µM
- TGI [34]: > 100 µM
- TGI [58]: > 100 µM
- TGI [35]: > 100 µM
- TGI [38]: > 100 µM
- TGI [39]: > 100 µM
- TGI [42]: > 100 µM
- TGI [43]: > 100 µM
- TGI [44]: > 100 µM
- TGI [45]: > 100 µM
- TGI [46]: > 100 µM
- TGI [47]: > 100 µM
- TGI [48]: > 100 µM
